Experimental data as given in the NIST ThermoML archive (doi:10.1016/j.jct.2015.12.017).

Assays:
[1] = for molar entropy: 101.33 kPa
[2] = Molar enthalpy of transition or fusion

O=P([O-])([O-])[O-].[Co+2].[Cs+] [cesium cobalt(II) phosphate]
[1]
Conditions | molar entropy [J/K/mol]
5 K, Crystal 4, Vacuum adiabatic calorimetry | 0.4864
6 K, Crystal 4, Vacuum adiabatic calorimetry | 0.7965
7 K, Crystal 4, Vacuum adiabatic calorimetry | 1.172
8 K, Crystal 4, Vacuum adiabatic calorimetry | 1.621
9 K, Crystal 4, Vacuum adiabatic calorimetry | 2.062
10 K, Crystal 4, Vacuum adiabatic calorimetry | 2.528
15 K, Crystal 4, Vacuum adiabatic calorimetry | 5.047
20 K, Crystal 4, Vacuum adiabatic calorimetry | 8.117
25 K, Crystal 4, Vacuum adiabatic calorimetry | 11.62
30 K, Crystal 4, Vacuum adiabatic calorimetry | 15.46
35 K, Crystal 4, Vacuum adiabatic calorimetry | 19.44
40 K, Crystal 4, Vacuum adiabatic calorimetry | 23.53
45 K, Crystal 4, Vacuum adiabatic calorimetry | 27.67
50 K, Crystal 4, Vacuum adiabatic calorimetry | 31.83
60 K, Crystal 4, Vacuum adiabatic calorimetry | 40.01
70 K, Crystal 4, Vacuum adiabatic calorimetry | 47.95
80 K, Crystal 4, Vacuum adiabatic calorimetry | 55.65
90 K, Crystal 4, Vacuum adiabatic calorimetry | 63.08
100 K, Crystal 4, Vacuum adiabatic calorimetry | 70.28
110 K, Crystal 4, Vacuum adiabatic calorimetry | 77.27
120 K, Crystal 4, Vacuum adiabatic calorimetry | 84.06
130 K, Crystal 4, Vacuum adiabatic calorimetry | 90.54
140 K, Crystal 4, Vacuum adiabatic calorimetry | 96.95
150 K, Crystal 4, Vacuum adiabatic calorimetry | 103.18
160 K, Crystal 4, Vacuum adiabatic calorimetry | 109.17
170 K, Crystal 4, Vacuum adiabatic calorimetry | 115.16
180 K, Crystal 4, Vacuum adiabatic calorimetry | 120.89
190 K, Crystal 4, Vacuum adiabatic calorimetry | 126.55
200 K, Crystal 4, Vacuum adiabatic calorimetry | 132.03
210 K, Crystal 4, Vacuum adiabatic calorimetry | 137.36
220 K, Crystal 4, Vacuum adiabatic calorimetry | 142.59
230 K, Crystal 4, Vacuum adiabatic calorimetry | 147.75
240 K, Crystal 4, Vacuum adiabatic calorimetry | 152.74
250 K, Crystal 4, Vacuum adiabatic calorimetry | 157.64
260 K, Crystal 4, Vacuum adiabatic calorimetry | 162.55
270 K, Crystal 4, Vacuum adiabatic calorimetry | 167.29
273.15 K, Crystal 4, Vacuum adiabatic calorimetry | 168.78
280 K, Crystal 4, Vacuum adiabatic calorimetry | 171.94
290 K, Crystal 4, Vacuum adiabatic calorimetry | 176.52
298.15 K, Crystal 4, Vacuum adiabatic calorimetry | 180.17
300 K, Crystal 4, Vacuum adiabatic calorimetry | 181.01
310 K, Crystal 4, Vacuum adiabatic calorimetry | 185.5
313.4 K, Crystal 3, Vacuum adiabatic calorimetry | 186.91
313.4 K, Crystal 4, Vacuum adiabatic calorimetry | 186.83
320 K, Crystal 3, Vacuum adiabatic calorimetry | 190.07
330 K, Crystal 3, Vacuum adiabatic calorimetry | 194.48
340 K, Crystal 3, Vacuum adiabatic calorimetry | 198.8
350 K, Crystal 3, Small sample (50 mg) DSC | 203.12
360 K, Crystal 3, Small sample (50 mg) DSC | 207.45
370 K, Crystal 3, Small sample (50 mg) DSC | 211.69
380 K, Crystal 3, Small sample (50 mg) DSC | 215.76
390 K, Crystal 3, Small sample (50 mg) DSC | 219.92
400 K, Crystal 3, Small sample (50 mg) DSC | 223.91
410 K, Crystal 3, Small sample (50 mg) DSC | 227.9
420 K, Crystal 3, Small sample (50 mg) DSC | 231.81
430 K, Crystal 3, Small sample (50 mg) DSC | 235.63
440 K, Crystal 3, Small sample (50 mg) DSC | 239.46
450 K, Crystal 3, Small sample (50 mg) DSC | 243.2
460 K, Crystal 3, Small sample (50 mg) DSC | 246.94
470 K, Crystal 3, Small sample (50 mg) DSC | 250.6
480 K, Crystal 3, Small sample (50 mg) DSC | 254.26
486.9 K, Crystal 2, Small sample (50 mg) DSC | 257.5
486.9 K, Crystal 3, Small sample (50 mg) DSC | 256.83
490 K, Crystal 2, Small sample (50 mg) DSC | 258.58
500 K, Crystal 2, Small sample (50 mg) DSC | 262.16
510 K, Crystal 2, Small sample (50 mg) DSC | 265.65
514.4 K, Crystal 1, Small sample (50 mg) DSC | 267.98
514.4 K, Crystal 2, Small sample (50 mg) DSC | 267.06
520 K, Crystal 1, Small sample (50 mg) DSC | 270.05
530 K, Crystal 1, Small sample (50 mg) DSC | 273.38
540 K, Crystal 1, Small sample (50 mg) DSC | 276.71
550 K, Crystal 1, Small sample (50 mg) DSC | 279.95
560 K, Crystal 1, Small sample (50 mg) DSC | 283.19
570 K, Crystal 1, Small sample (50 mg) DSC | 286.27
580 K, Crystal 1, Small sample (50 mg) DSC | 289.34
590 K, Crystal 1, Small sample (50 mg) DSC | 292.42
600 K, Crystal 1, Small sample (50 mg) DSC | 295.41
610 K, Crystal 1, Small sample (50 mg) DSC | 298.32
620 K, Crystal 1, Small sample (50 mg) DSC | 301.15
630 K, Crystal 1, Small sample (50 mg) DSC | 303.98
640 K, Crystal 1, Small sample (50 mg) DSC | 306.8
650 K, Crystal 1, Small sample (50 mg) DSC | 309.55

Conditions | Molar enthalpy of transition or fusion, Crystal 2, DSC [kcal/mol] | Molar enthalpy of transition or fusion, Crystal 3, DSC [kcal/mol] | Molar enthalpy of transition or fusion, Crystal 4, Adiabatic calorimetry [kcal/mol] | Triple point temperature, Crystal 2, DSC [K] | Triple point temperature, Crystal 3, DSC [K] | Triple point temperature, Crystal 4, Adiabatic calorimetry [K]
[1] | – | – | – | 514.4 | 486.9 | 313.4
[2] | 0.113 | 0.0824 | 0.00728 | – | – | –
